PubChem BioAssay AID1419 (Emory University Molecular Libraries Screening Center, 2008)
The source made the active and inactive calls. How the calls were made is not given here.

Experiment: EBV protein-peptide binding inhibitors, dose response, biochemical, fluorescence polarization (AID 1419)
Conditions: cell-free protein-peptide binding, 2 h; for fold change: measured here: P channel fold over control, at 54 µM

| Structure (SMILES) | IC50 | fold change |
| --- | --- | --- |
| CN1C(=O)N(C)c2ccc(C=O)c3cccc1c23 | 4.91 µM | 2.37 |
| COc1ccc(C2CC(c3cccs3)=NN2c2ccc(C=O)cc2)cc1 (centres undefined) | 16.2 µM | 15.4 |
| Cc1nc2ccccc2n2c(O)c(CC(=O)O)cc12 | > 54 µM (inactive) | 7.32 |
| CN1C(=O)/C(=C2\SC(=S)N(CCCCCC(=O)O)C2=O)c2ccccc21 | 52.1 µM (inactive) | 1.07 |
| NC(=O)c1ccc(N=Nc2c(O)c3ccccc3[nH]c2=O)cc1 | 13.3 µM | 2.71 |
| COc1ccc(-c2nc(CS(=O)CC(=O)NCc3cccnc3)c(C)o2)cc1 (centres undefined) | > 54 µM (inactive) | 1.01 |
| CN1CC=C2C(C#N)=C(N)C(C#N)(C#N)[C@H](c3cccc(Cl)c3)C2C1 (some centres undefined) | 3.17 µM | 4.79 |
| CN(C)c1ccc2c3c(cccc13)C(=O)N(c1ccccc1)C2=O | 4.05 µM | 11 |
| O=c1oc2ccccc2nc1/C=C(\O)c1ccc(Br)cc1 | > 54 µM (inactive) | 6.17 |
| Cn1c(-c2ccc(C=O)s2)nc2c3ccccc3c3ccccc3c21 | 4.07 µM | 14.6 |
| O=C(O)CSc1cc(C(=O)c2ccccc2O)cn2c(=O)c3c4c(sc3nc12)CCCC4 | > 54 µM (inactive) | 1.02 |
| O=C(NCCCO)Nc1ccc2nc(-c3ccco3)c(-c3ccco3)nc2c1 | 4.06 µM | 5.99 |
| Cc1ccc(S(=O)(=O)C(C#N)c2nc3ccccc3nc2N2CCCC2)cc1 (centres undefined) | > 54 µM (inactive) | 1.67 |
| Nc1c(NCCC2=CCCCC2)c(=O)[nH]c(=O)n1Cc1ccccc1 | > 54 µM (inactive) | 1.7 |
| COc1ccccc1N1CCN(CC(O)COc2cccc3ccccc23)CC1 (centres undefined) | > 54 µM (inactive) | 0.917 |
| Cc1cc([N+](=O)[O-])ccc1-c1ccc(/C=N/NC(=O)Cc2ccccc2)o1 | 6.04 µM | 10.6 |

| Structure (SMILES) | IC50 | fold change |
| --- | --- | --- |
| O=[N+]([O-])c1ccc(N2N=C(c3ccco3)CC2c2ccccc2)cc1 (centres undefined) | 14.2 µM | 2.85 |
| CCN(CC)c1ccc2cc(C(=O)NNC(=O)c3ccc(S(=O)(=O)N4CCCCC4)cc3)c(=O)oc2c1 | 3.01 µM | 87.1 |
| CSC1=NSC2=NC(=O)/C(=C/c3coc4ccccc4c3=O)C(=N)N12 | 1.78 µM | 106 |
| O=c1oc2ccccc2cc1-c1nc(-c2cccs2)cs1 | 2.96 µM | 25.8 |
| O=C(CSc1nc(-c2ccc(F)cc2)nc2c1Cc1ccccc1O2)Nc1cccc(C(=O)O)c1 | 1.63 µM | 1.13 |
| O=C(OCCN1C(=O)c2cccc3c(N4CCOCC4)ccc(c23)C1=O)c1cccc(Cl)c1 | 2.52 µM | 56.6 |
| O=C1c2cccc3c(O)ccc(c23)C(=O)N1Cc1ccco1 | < 0.42 µM | 134 |
| CCSc1nc2sc3c(c2c(=O)[nH]1)CCCC3 | > 54 µM (inactive) | 1.05 |
| Nc1ccc2c(c1Cl)C(=O)c1ccc(N)c(Cl)c1C2=O | 11.4 µM | 1.07 |
| Cc1ccc(N2C(=O)C3C(C2=O)C(C(=O)c2ccc(Cl)cc2)N2CCCC32)cc1 (centres undefined) | > 54 µM (inactive) | 2.44 |
| CN(C)c1ncnc2c1NC1=C(S2)C(=NCCCC(=O)O)CC(C)(C)C1 | 5.71 µM | 3.35 |
| N=C1/C(=C\c2ccc(-c3cccc(C(=O)O)c3)o2)C(=O)N=C2SC=C(c3ccccc3)N12 | 4.25 µM | 1.23 |
| Cc1cc(-c2nc3c4c5c(sc4[nH]c(=O)n3n2)CCC5)c(C)o1 | 21.8 µM | 1.2 |
| Cn1c(SCC(=O)Nc2ccc3nc(SCC(=O)N4CCCC4)sc3c2)nnc1-c1ccc(N)cc1 | 36.4 µM (inactive) | 1.12 |
| COc1cc2c(cc1NC(=O)CN1C(=O)NC3(CCc4ccccc43)C1=O)oc1ccccc12 (centres undefined) | > 54 µM (inactive) | 0.93 |
| O=C1CCC(=O)N1c1nc2n(n1)C(c1ccccc1)C=C(c1ccc(Br)cc1)N2 (centres undefined) | > 54 µM (inactive) | 1.53 |
